Tested on: K562
Test: Cytotoxic activity against K562 erythroleukemic cells
Assay type: functional, cell-based
Conditions: Homo sapiens

CC(=O)[C@]1(O)Cc2c(O)c3c(c(O)c2[C@@H](O[C@H]2C[C@H](N)[C@H](O)[C@H](C)O2)C1)C(=O)c1ccccc1C3=O [IDARUBICIN]
IC50: 2 nM

From ChEMBL document CHEMBL1132317, “Solution structure of iron(III)-anthracycline complexes” (J Med Chem, 1999)
